Measurements from patent US20230293535A1, “ERBB/BTK INHIBITORS” (Dizal (Jiangsu) Pharmaceutical Co., Ltd., priority 2018, published 2023).

Tests used:
[1] = target: T1, BTK (Homo sapiens, UniProt Q06187); experiment: BTK target site occupancy ELISA (PBMC); type: cell-based; details: BTK receptor occupancy
Procedure: (§1) An enzyme-linked immunosorbent assay (ELISA) method for the detection of free uninhibited Btk in mouse and human lysates. Human or mouse whole blood were incubated with compound for 2 hour at 37° C. Whole blood were lysed in ice-cold lysis buffer containing 50 mM Tris-HCl, pH 7.5, 150 mM NaCl, 1 mM EDTA,1% Triton X-100. […] Samples were transferred to a streptavidin-coated 96-well ELISA plate and mixed while shaking for 1 hour at room temperature. The α-Btk antibody (1:500; clone number D3H5, Cell signaling Technology, Danvers, MA, USA) was then added to the well and incubated for 1 hour at room temperature. After wash, goat α-rabbit-FW (1:5000 dilution in PBS+ 0.05% Tween-20 + 1% BSA) was added to each well and incubated for 1 h at room temperature. The ELISA was developed with addition of tetramethyl benzidine (TMB) followed by Stop Solution and read at OD 450 nm.

[2] = test system: TMD-8 cells; experiment: BTK (wt) cell proliferation, TMD-8 (CellTiter-Glo, 72 h); type: cell-based; details: Homo sapiens, TMD8, 72 h, TMD-8 cells, 72 h, CellTiter-Glo; read-out: BTK WT TMD-8 GI50;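 note: viable cells quantified by ATP-based luminescence, proliferation expressed as percent of DMSO control after subtracting a time-zero baseline plate read at dosing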
[3] = target: T2, EGFR L858R&T790M (Homo sapiens, UniProt P00533, L858R/T790M); experiment: EGFR L858R and T790M cellular phosphorylation inhibition in NCI-H1975 (MSD); type: cell-based; details: NCI-H1975 cells, 4 h compound, p-EGFR(Y1068)/total EGFR; read-out: EGFR L858R and T790M mutation IC50;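 note: phosphorylated and total EGFR detected by electrochemiluminescence, cells exposed to compound in medium containing 1% FBS at 37 °C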
T2 construct: host or cells: NCI-H1975

[4] = target: T3, human EGFR exon 20 H773_V774insNPH (Homo sapiens, UniProt P00533, INS773NPH); experiment: EGFR Exon20 NPH insertion cellular phosphorylation inhibition (MSD pEGFR Y1068/total EGFR); type: cell-based; details: Ba/F3 EGFR NPH ins cells, 4 h compound, p-EGFR(Y1068)/total EGFR;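 note: IL3-independent Ba/F3 cells with constitutively phosphorylated EGFR, compound exposure at 37 °C under 5% CO2, electrochemiluminescent MSD measurement of the p-EGFR to total EGFR ratio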
T3 construct: host or cells: Ba/F3

[5] = test system: Ba/F3 EGFR ASV ins cells; experiment: Cell proliferation, Ba/F3 EGFR ASV ins (CellTiter-Glo, 72 h); type: cell-based; details: Ba/F3 EGFR, 72 h, Ba/F3 EGFR ASV ins, 72 h proliferation; read-out: EGFR Exon20 ASV insertion GI50;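 note: IL3-independent Ba/F3 cells transduced with EGFR V769_D770insASV, cellular ATP luminescence after compound exposure, growth relative to DMSO control with the day-0 baseline reading subtracted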
[6] = test system: Ri-1 cells; experiment: BTK (wt) cell proliferation, Ri-1 (CellTiter-Glo, 72 h); type: cell-based; details: Ri-1, 72 h, Ri-1 cells, 72 h, CellTiter-Glo; read-out: BTK WT Ri-1 GI50;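 note: viable cells quantified as cellular ATP luminescence, proliferation normalized to a time-zero plate and the DMSO control, compounds tested across a dilution series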
[7] = test system: Ba/F3 EGFR NPH ins cells; experiment: Cell proliferation, Ba/F3 EGFR NPH ins (CellTiter-Glo, 72 h); type: cell-based; details: Ba/F3 EGFR, 72 h, Ba/F3 EGFR NPH ins, 72 h proliferation; read-out: EGFR Exon20 NPH insertion GI50;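 note: IL3-independent cells carrying constitutively phosphorylated EGFR, compound dilution series, viable cells quantified by ATP luminescence, growth relative to DMSO wells after subtracting pre-dosing (day 0) baseline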
Procedure: Similar to recombinant human EGFR exon 20 H769_V770insASV Ba/F3 cell line, the recombinant human EGFR exon 20 H773_V774insNPH Ba/F3 cell line also expresses constitutively phosphorylated EGFR protein and proliferates in the absence of IL3, which could be used for in vitro PD and anti-proliferation assays.
(§2) WT or mutant cells were seeded in 384 well plates at appropriate concentrations with corresponding growth media supplemented with 10% FBS, for each experiment, identical plates were prepared in duplicates, and the plates were incubated overnight. On the next day, one of each duplicated plates was dosed with tested compounds at a series of concentrations, and another one of the duplicated plate was analysied for G0 value. The dosed plates were incubate for another 72 h at 37° C. with 5% CO2 and the number of viable cells in each well of the G0 plates or the dosed plates were measured by CellTiter-Glo® Luminescent Cell Viability Assay (Promega). This assay is a luminescent method for determining the number viable cells through measurement of cellular ATP concentration by detection of luciferase activity. Detection reagents (15 µl) was dispensed into per well, and the plates were incubate for 30 min at room temperature. Then, the luminescence in each well was measured using the Envision plate reader (PerkinElmer). The percentage of proliferation was calculated based on the formula: %Proliferation= 100 × (G3 value of sample well-Go value)/(G3 value of DMSO control-Go value).

[8] = test system: WT EGFR cell line A-431; experiment: Cell proliferation, WT EGFR A431 (CellTiter-Glo, 72 h); type: cell-based; details: Homo sapiens, A-431, 72 h, A431, 72 h proliferation; read-out: EGFR WT A431 GI50;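 note: proliferation from a luminescent ATP viability signal, expressed as 100 × (treated minus time-zero plate) over (DMSO control minus time-zero plate), cells grown with 10% FBS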
Procedure: as §2

[9] = test system: NCI-H1975 EGFR L858R/T790M cells; experiment: Cell proliferation, NCI-H1975 EGFR L858R/T790M (CellTiter-Glo, 72 h); type: cell-based; details: Homo sapiens, NCI-H1975, 72 h, NCI-H1975, 72 h proliferation; read-out: EGFR L858R and T790M mutation GI50;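 note: viable cells quantified by luciferase-based ATP luminescence, proliferation expressed relative to DMSO-treated wells (100%) after subtracting a parallel plate read at the time of dosing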
[10] = test system: OCI-LY-10 cells; experiment: BTK (wt) cell proliferation, OCI-LY-10 (CellTiter-Glo, 72 h); type: cell-based; details: Homo sapiens, OCI-Ly10, 72 h, OCI-LY-10 cells, 72 h, CellTiter-Glo; read-out: BTK WT OCI-LY-10 GI50;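 note: viable cells quantified via cellular ATP luminescence, proliferation given as percent of DMSO control after subtracting a duplicate plate read at time of dosing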
Procedure: OCI-LY-10 at 3,750 cells/well, TMD-8 and Ri-1 at 2,000 cells/well, and DB at 1,250 cells/well, respectively, were sorted into 384-well plates in RPMI1640 medium with 10% FBS. After overnight incubation, all cells were incubated with compound at a series of concentrations. Meanwhile, a duplicated plate of each cell line was prepared for measuring G0 value. The dosed plates were further incubated for 72 hours and the number of viable cells was measured by CellTiter-Glo® Luminescent Cell Viability Assay (Promega), a luminescent method for determining the number of viable cells through measurement of cellular ATP concentration using Envision plate reader (PerkinElmer). The percentage of proliferation was calculated as: % Proliferation = 100 × (G3 value of sample well - G0 value)/(G3 value of DMSO control - G0 value).

[11] = target: T4, human EGFR exon 20 V769_D770insASV (Homo sapiens, UniProt P00533, INS769ASV); experiment: EGFR Exon20 ASV insertion cellular phosphorylation inhibition (MSD pEGFR Y1068/total EGFR); type: cell-based; details: Ba/F3 EGFR ASV ins cells, 4 h compound, p-EGFR(Y1068)/total EGFR;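 note: electrochemiluminescent readout on an MSD SECTOR Imager, IL3-independent transduced cells in medium with 1% FBS, compound concentration series at 37 °C and 5% CO2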
T4 construct: expressed in transfected cells; host or cells: Ba/F3 (DSMZ ACC-300), lentiviral transduction, puromycin selection, IL3 depletion

[12] = test system: Her2 exon 20 insertion YVMA transduced NIH-3T3 cell line; experiment: Cell proliferation, Her2 YVMAins NIH-3T3 (CellTiter-Glo, 72 h); type: cell-based; details: Mus musculus, NIH3T3, 72 h, Her2 YVMAins cells, 72 h proliferation; read-out: Her2 Exon 20 YVMA insertion GI50;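 note: viable cells quantified by ATP luminescence, growth over a day-zero baseline plate expressed as percent of DMSO control growth, compound dilution series in 10% FBS medium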
[13] = target: T5, Phospho-BTK (Tyr223) (Homo sapiens, UniProt Q06187); experiment: p-BTK assay in Ramos cells (HTRF Phospho-BTK Tyr223); type: cell-based; details: pervanadate stimulated, read-out: p-BTK (Romas) IC50
T5 construct: endogenous in cells; host or cells: Ramos
Procedure: The assay plates were then incubated for 30 minutes at 37° C., 5% CO2. 300 uM Per vanadate (3X) was added to each well and the assay plates were again incubated for 60 minutes at 37° C., 5% CO2. Phospho-BTK (Tyr223) is detected using the HTRF® reagents (Cisbio) according to the manufacturer’s one-plate assay protocol.

[14] = test system: DB cells; experiment: BTK (wt) cell proliferation, DB (CellTiter-Glo, 72 h); type: cell-based; details: Homo sapiens, DB, DB cells, CellTiter-Glo, read-out: Non-BCR activated DB GI50;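 note: DB cells in 384-well plates given a dilution series of compound, viable cells read by ATP luminescence, growth expressed versus DMSO control after subtracting a time-zero plate reading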
[15] = target: T6, WT EGFR (Homo sapiens, UniProt P00533); experiment: WT EGFR cellular phosphorylation inhibition in A-431 (hEGF stimulated, MSD); type: cell-based; details: A431 cells, 4 h compound, then 100 ng/ml hEGF 10 min;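 note: electrochemiluminescence read-out of EGFR Tyr1068 phosphorylation expressed as ratio to total EGFR, cells kept in medium with 1% FBS, compounds tested as a concentration series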
T6 construct: host or cells: A-431

[16] = target: T7, human Her2 exon 20 insertion mutation YVMA (Homo sapiens, UniProt P04626, INS775YVMA); experiment: Her2 Exon 20 YVMA insertion cellular phosphorylation inhibition (MSD p-Her2 Y1248/total Her2); type: cell-based; details: Her2 YVMAins cells, 4 h compound;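 note: lentivirally transduced NIH-3T3 cells in 1% FBS medium, electrochemiluminescent MSD read-out, graded compound concentrations at 37 °C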
T7 construct: expressed in transfected cells; host or cells: NIH-3T3, lentiviral transduction, puromycin selection

[17] = target: T1, BTK; experiment: BTK target site occupancy ELISA (Ramos); type: cell-based; set-up: endogenous in cells; host or cells: Ramos; details: BTK receptor occupancy, read-out: Occupancy (Romas) IC50
Procedure: as §1

[18] = In vitro rat hepatocytes clearance assay; details: male, rat, cryopreserved rat hepatocytes (suspension), rat hepatocytes Clint (µL/min/10^6cells), 1 µM-range incubation up to 100 min
Procedure: (§3) The protocol for rat/human hepatocytes metabolic stability assay is employed to determine the clearance of the compounds of the present disclosure in vitro.
(§4) Rat hepatocytes in male gender and human hepatocytes in mixed gender were obtained from commercial vendors (e.g., BioreclamationIVT) and stored at -150° C. prior to use. 10 mM stock solutions of tested compounds were prepared in DMSO. Thawing medium and supplement incubation medium (serum-free) were placed in a 37° C. water bath for at least 15 minutes prior to use. Stock solutions were diluted to 100 µM by combining 198 µL acetonitrile and 2 µL of 10 mM stock solution.
(§5) Vials of cryopreserved hepatocytes were removed from storage, ensured that vials remain at cryogenic temperatures. The vials were thawed in a 37° C. water bath with gently shaking. Vials were kept in water bath until all ice crystals had dissolved and were no longer visible. Vials were sprayed with 70% ethanol before being transferred to a biosafety cabinet. And then the contents were poured into the 50 mL thawing medium conical tube. Vials were centrifuged at 100 g for 10 minutes at room temperature.
(§6) Cell viability and density were counted using a Trypan Blue exclusion, and then cells were diluted with serum-free incubation medium to a working cell density of 1 × 10^6 viable cells/ml. […] The inactivated hepatocytes were used to prepare negative samples, which were used to exclude the misleading factor that resulted from instability of chemical itself.
(§7) Aliquots of 247.5 µL hepatocytes were dispensed into each well of a 96-well non-coated plate. The plate was placed in the incubator on an orbital shaker for approximately 10 minutes. Aliquots of 2.5 µL of the 100 µM test compounds were added into respective wells of the non-coated 96-well plate to start the reaction. This assay was performed in duplicate. The plate was incubated in the incubator on an orbital shaker for the designed time points. […] Samples were centrifuges for 20 minutes at 4000 g and aliquots of 100 µL of the supernatants were used for LC-MS/MS analysis for measurement of test compounds
(§8) In vitro hepatocyte clearance was estimated based on determination of elimination half-life (T½) of compounds disappearance from their initial concentrations. Peak area ratios of each compound (test or control) to IS was calculated. Ln (%Control) versus Incubation Time (min) curve was plotted, and the slope of a linear fitting line was calculated.

[19] = Rat pharmacokinetic study after oral administration (SOA); type: in vivo; details: male Han Wistar rats; for SOA DN AUCSYS (ng·h/mL)/(mg/kg): dose-normalised systemic AUC; for Cmax: rat, plasma, nominal 10 mg/kg (actual dose in c1)
Procedure: For rat pharmacokinetic studies, six male Han Wistar rats were purchased from Beijing Vital River and orally dosed with the test compound at 10 mg/kg in 0.5% Tween-80 and 0.5% hydroxypropyl methylcellulose (v/w). At, 0.5, 1, 2, 4, 7 and 16 hours post-dose, blood samples (>100 µL/time point) were collected from portal vein and via cardiac puncture into separate K2EDTA […] tubes, and then immediately centrifuged at 1500 g, 5 min at 4° C. to separate plasma. The plasma samples were deproteinized with 4 fold acetonitrile (including internal standard), vortex for 10 min and centrifuges for 10 minutes at 4000 g at 4° C.. The supernatantswere submitted to LC/MS/MS (API 5500, Applied Biosystems, Foster City) analysis. Two sets of standard curves were run at the beginning and end of each batch from plasma sample analysis.
Compound absorption was measured by portal vein AUC (AUCHPV) and systemic AUC (AUCSYS) observed maximum concentration (Cmax) in rats after oral administration. Dose is the actual dose used in SOA study. Find below in Table 9 data for exemplary tested compounds.

[20] = In vitro human hepatocytes clearance assay; details: both, human, cryopreserved human hepatocytes (suspension), human hepatocytes Clint (µL/min/10^6cells), mixed gender human hepatocytes, incubation up to 100 min
Procedure: as §3, §4, §5, §6, §7, §8

T6 sequence (P00533 25-1210): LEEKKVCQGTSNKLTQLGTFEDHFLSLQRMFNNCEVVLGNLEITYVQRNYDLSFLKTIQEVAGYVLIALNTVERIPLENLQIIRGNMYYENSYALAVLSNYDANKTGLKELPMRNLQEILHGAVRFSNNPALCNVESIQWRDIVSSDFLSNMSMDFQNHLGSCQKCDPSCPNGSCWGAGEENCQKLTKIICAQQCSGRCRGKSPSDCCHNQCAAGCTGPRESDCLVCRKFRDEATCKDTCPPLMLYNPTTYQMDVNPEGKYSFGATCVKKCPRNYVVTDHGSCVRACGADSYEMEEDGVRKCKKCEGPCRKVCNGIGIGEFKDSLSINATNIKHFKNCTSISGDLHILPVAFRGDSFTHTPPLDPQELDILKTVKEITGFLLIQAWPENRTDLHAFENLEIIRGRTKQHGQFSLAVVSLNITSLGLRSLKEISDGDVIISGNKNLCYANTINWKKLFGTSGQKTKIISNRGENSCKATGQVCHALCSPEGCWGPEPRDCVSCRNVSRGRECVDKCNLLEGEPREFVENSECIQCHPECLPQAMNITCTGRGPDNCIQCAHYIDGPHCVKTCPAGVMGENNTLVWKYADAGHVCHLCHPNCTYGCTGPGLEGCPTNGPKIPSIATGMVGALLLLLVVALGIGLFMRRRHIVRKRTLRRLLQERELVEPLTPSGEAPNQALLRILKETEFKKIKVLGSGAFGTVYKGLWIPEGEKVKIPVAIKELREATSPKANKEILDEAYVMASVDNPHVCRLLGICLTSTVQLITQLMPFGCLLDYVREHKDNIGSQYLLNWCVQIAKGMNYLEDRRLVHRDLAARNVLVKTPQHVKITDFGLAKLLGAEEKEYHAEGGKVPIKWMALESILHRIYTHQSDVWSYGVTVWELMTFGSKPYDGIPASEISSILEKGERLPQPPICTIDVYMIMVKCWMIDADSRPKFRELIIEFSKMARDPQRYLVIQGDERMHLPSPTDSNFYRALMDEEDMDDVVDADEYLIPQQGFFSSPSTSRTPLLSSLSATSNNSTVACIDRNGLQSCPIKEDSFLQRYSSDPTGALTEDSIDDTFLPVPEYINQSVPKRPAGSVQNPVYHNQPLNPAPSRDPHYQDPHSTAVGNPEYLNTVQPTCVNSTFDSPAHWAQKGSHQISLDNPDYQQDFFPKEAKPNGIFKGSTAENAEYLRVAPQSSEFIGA
T4 sequence (P00533 with tags, fused parts or gaps INS769ASV): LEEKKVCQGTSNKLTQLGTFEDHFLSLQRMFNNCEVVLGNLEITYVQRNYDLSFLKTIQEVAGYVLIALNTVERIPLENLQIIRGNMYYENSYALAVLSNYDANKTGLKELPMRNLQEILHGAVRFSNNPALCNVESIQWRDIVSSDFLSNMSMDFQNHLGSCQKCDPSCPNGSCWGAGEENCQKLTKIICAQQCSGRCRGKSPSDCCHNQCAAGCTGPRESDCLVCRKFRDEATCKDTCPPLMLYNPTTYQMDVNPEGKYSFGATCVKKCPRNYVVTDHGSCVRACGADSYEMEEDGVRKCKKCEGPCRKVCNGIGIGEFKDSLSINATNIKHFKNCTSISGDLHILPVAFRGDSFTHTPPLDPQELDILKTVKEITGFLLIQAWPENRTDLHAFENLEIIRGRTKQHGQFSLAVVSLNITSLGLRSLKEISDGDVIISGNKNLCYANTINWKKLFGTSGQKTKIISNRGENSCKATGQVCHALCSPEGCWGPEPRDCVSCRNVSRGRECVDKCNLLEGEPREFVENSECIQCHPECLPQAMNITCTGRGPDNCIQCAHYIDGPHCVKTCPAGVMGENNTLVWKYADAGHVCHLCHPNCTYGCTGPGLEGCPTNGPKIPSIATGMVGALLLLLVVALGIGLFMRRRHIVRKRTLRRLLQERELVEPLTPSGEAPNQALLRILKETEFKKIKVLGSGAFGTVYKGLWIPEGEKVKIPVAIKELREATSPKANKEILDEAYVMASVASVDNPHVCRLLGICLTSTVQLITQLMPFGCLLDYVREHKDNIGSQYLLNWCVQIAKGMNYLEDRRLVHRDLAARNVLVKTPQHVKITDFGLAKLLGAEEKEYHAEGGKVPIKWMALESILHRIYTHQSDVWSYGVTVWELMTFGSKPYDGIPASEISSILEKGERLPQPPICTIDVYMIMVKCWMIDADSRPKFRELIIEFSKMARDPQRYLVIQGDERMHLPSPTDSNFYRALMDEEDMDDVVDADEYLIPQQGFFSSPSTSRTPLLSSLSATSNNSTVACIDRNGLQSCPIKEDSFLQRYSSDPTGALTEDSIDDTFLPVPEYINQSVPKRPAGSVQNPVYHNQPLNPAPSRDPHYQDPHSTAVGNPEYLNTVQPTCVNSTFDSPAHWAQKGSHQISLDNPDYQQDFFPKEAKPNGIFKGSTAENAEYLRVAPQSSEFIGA
T3 sequence (P00533 with tags, fused parts or gaps INS773NPH): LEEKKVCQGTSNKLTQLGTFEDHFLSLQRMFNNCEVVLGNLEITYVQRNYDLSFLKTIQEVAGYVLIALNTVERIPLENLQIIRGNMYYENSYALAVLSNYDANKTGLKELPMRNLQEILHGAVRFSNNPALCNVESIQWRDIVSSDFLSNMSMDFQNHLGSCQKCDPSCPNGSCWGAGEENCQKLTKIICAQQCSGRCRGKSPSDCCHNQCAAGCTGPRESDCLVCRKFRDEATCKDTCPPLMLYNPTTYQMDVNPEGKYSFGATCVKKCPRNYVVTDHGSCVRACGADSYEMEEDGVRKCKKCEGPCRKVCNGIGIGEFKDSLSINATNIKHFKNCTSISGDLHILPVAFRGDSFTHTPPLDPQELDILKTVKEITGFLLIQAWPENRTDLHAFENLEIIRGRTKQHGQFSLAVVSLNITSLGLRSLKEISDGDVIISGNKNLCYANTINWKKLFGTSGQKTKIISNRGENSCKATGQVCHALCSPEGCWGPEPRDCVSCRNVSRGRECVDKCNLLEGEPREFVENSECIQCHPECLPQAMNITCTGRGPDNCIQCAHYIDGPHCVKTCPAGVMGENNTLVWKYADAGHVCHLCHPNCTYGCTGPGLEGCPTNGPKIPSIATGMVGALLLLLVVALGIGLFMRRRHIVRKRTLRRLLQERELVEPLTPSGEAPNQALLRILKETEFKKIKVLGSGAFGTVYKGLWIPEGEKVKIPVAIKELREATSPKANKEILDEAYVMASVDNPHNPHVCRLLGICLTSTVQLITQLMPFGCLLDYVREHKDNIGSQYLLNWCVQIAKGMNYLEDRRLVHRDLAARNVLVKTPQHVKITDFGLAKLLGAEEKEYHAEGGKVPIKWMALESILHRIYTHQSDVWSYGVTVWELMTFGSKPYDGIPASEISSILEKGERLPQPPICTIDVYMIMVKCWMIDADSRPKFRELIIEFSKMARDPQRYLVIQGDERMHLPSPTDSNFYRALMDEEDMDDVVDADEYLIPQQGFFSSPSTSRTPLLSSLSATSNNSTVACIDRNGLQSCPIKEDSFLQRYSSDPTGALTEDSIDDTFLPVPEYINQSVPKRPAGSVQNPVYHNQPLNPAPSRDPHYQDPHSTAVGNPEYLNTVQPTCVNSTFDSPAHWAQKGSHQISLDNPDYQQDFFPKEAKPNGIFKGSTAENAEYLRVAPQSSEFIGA
T2 sequence (P00533 25-1210 T790M/L858R): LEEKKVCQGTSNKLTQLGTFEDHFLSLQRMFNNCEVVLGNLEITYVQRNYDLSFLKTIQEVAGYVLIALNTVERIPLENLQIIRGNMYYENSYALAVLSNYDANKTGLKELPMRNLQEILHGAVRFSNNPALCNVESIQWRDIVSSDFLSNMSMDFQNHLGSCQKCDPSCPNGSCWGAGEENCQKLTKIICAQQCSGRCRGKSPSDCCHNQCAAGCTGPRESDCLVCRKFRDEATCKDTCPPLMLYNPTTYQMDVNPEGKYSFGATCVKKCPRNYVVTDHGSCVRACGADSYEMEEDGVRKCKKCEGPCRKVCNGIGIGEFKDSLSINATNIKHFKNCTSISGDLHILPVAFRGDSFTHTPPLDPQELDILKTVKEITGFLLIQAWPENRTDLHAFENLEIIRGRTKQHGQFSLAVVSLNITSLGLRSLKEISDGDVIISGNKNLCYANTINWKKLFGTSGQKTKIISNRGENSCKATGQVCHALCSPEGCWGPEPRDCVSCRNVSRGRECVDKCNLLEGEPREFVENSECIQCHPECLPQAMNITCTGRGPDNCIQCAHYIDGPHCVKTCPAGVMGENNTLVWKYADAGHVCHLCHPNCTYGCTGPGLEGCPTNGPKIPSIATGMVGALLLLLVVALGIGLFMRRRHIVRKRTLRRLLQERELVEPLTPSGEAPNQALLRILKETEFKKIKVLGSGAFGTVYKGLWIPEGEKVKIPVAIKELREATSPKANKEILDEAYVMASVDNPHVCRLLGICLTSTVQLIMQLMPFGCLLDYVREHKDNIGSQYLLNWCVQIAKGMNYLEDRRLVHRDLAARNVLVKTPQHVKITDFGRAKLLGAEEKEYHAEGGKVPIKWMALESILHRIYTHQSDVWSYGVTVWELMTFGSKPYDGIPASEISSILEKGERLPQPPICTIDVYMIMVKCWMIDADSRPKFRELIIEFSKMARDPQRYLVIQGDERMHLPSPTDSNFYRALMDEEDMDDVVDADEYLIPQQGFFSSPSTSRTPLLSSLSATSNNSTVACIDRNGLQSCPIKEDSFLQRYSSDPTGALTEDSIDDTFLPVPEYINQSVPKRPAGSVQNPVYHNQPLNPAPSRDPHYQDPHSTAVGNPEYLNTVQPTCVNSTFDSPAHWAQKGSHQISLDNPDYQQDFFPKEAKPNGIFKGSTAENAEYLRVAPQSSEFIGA

SMILES	GI50 [2]	IC50 [3]	IC50 [4]	GI50 [5]	GI50 [6]	GI50 [7]	GI50 [8]	GI50 [9]	GI50 [10]	IC50 [11]	GI50 [12]	GI50 [14]	IC50 [15]	IC50 [16]	hepatocyte CLint at 1 µM [18]	SOA DN AUCSYS (ng·h/mL)/(mg/kg) [19]	Cmax [19]	hepatocyte CLint at 1 µM [20]	also measured
C=CC(=O)Nc1cc(Nc2ncnc(Nc3cc(Cl)c(F)cc3C(C)(C)O)n2)c(OC)cc1N1CC(CN(C)C)C1 [Compound 39, N-(5-(4-(5-chloro-4-fluoro-2-(2-hydroxypropan-2-yl)phenylamino)-1,3,5-triazin-2-ylamino)-2-(3-((dimethylamino)methyl)azetidin-1-yl)-4-methoxyphenyl)acrylamide]	1.69 nM	1.8 nM	45.6 nM	76.6 nM	1.47 nM	71.8 nM	26.5 nM	5.5 nM	1.74 nM	29.9 nM	69.9 nM	> 3000 nM	30.1 nM	13.2 nM	–	–	–	–	IC50 [1]: 1.3 nM; IC50 [13]: 0.9 nM; IC50 [17]: 1 nM
C=CC(=O)Nc1cc(Nc2ncnc(Nc3cc(Cl)c(F)cc3C(C)(C)O)n2)c(OC)cc1N1CC[C@@H]1CN(C)C [Compound 38, (R)-N-(5-(4-(5-chloro-4-fluoro-2-(2-hydroxypropan-2-yl)phenylamino)-1,3,5-triazin-2-ylamino)-2-(2-((dimethylamino)methyl)azetidin-1-yl)-4-methoxyphenyl)acrylamide]	1.62 nM	0.9 nM	19.6 nM	46.2 nM	1.49 nM	59.4 nM	19.7 nM	3.9 nM	0.7 nM	8 nM	84.8 nM	> 3000 nM	18.9 nM	9.3 nM	–	–	–	–	IC50 [1]: 1.7 nM; IC50 [13]: 1.3 nM; IC50 [17]: 0.8 nM
C=CC(=O)Nc1cc(Nc2nccc(Nc3cc(Cl)c(F)cc3C(C)(C)O)n2)c(OC)cc1N1CC[C@@H](CN(C)C)C1 [Compound 86, (S)-N-(5-(4-(5-chloro-4-fluoro-2-(2-hydroxypropan-2-yl)phenylamino)pyrimidin-2-ylamino)-2-(3-((dimethylamino)methyl)pyrrolidin-1-yl)-4-methoxyphenyl)acrylamide]	11.4 nM	0.6 nM	21.5 nM	90.9 nM	18.6 nM	59.8 nM	45.8 nM	29.1 nM	7.8 nM	17.9 nM	249 nM	> 3000 nM	195 nM	9.3 nM	16.2 µL/min/1e6 cells	77.8 (ng·h/mL)/(mg/kg)	76.5 ng/mL	4.32 µL/min/1e6 cells	–
C=CC(=O)Nc1cc(Nc2nccc(Nc3cc(Cl)c(F)cc3C(C)(C)O)n2)c(OC)cc1N1C[C@@H](F)[C@@H](N(C)C)C1 [Compound 79, N-(5-(4-(5-chloro-4-fluoro-2-(2-hydroxypropan-2-yl)phenylamino)pyrimidin-2-ylamino)-2-((3 S,4R)-3-(dimethylamino)-4-fluoropyrrolidin-1-yl)-4-methoxyphenyl)acrylamide]	14.4 nM	1.3 nM	29.5 nM	176 nM	80.9 nM	167 nM	124 nM	13 nM	8.1 nM	43.2 nM	233 nM	> 3000 nM	356 nM	18.8 nM	24.1 µL/min/1e6 cells	50.1 (ng·h/mL)/(mg/kg)	52.5 ng/mL	7.36 µL/min/1e6 cells	–
C=CC(=O)Nc1cc(Nc2ncnc(Nc3cc(Cl)c(F)cc3C(C)(C)O)n2)c(OC)cc1N1C[C@@H](F)[C@@H](N(C)C)C1 [Compound 93, N-(5-(4-(5-chloro-4-fluoro-2-(2-hydroxypropan-2-yl)phenylamino)-1,3,5-triazin-2-ylamino)-2-((3 S,4R)-3-(dimethylamino)-4-fluoropyrrolidin-1-yl)-4-methoxyphenyl) acrylamide]	3.1 nM	1.6 nM	33.1 nM	83.2 nM	3.2 nM	105 nM	21.5 nM	7.3 nM	0.92 nM	19.4 nM	166 nM	> 3000 nM	51.6 nM	15.1 nM	11.5 µL/min/1e6 cells	249 (ng·h/mL)/(mg/kg)	498 ng/mL	5.01 µL/min/1e6 cells	–
C=CC(=O)Nc1cc(Nc2ncnc(Nc3cc(Cl)c(Cl)cc3C(C)(C)O)n2)c(OC)cc1N1CC[C@@H](N(C)C)C1 [Compound 61, (R)-N-(5-(4-(4,5-dichloro-2-(2-hydroxypropan-2-yl)phenylamino)-1,3,5-triazin-2-ylamino)-2-(3-(dimethylamino)pyrrolidin-1-yl)-4-methoxyphenyl)acry lamide]	1.03 nM	0.4 nM	14.2 nM	25.6 nM	5.62 nM	18.8 nM	12.4 nM	2.1 nM	2.72 nM	12.3 nM	87.8 nM	1510 nM	18 nM	9 nM	7.9 µL/min/1e6 cells	–	–	2.71 µL/min/1e6 cells	–
C=CC(=O)Nc1cc(Nc2ncnc(Nc3cc(Cl)c(F)cc3C(C)(C)O)n2)c(OC)cc1N1CC[C@@H](N(C)C)C1 [Compound 33, (R)-N-(5-(4-(5-chloro-4-fluoro-2-(2-hydroxypropan-2-yl)phenylamino)-1,3,5-triazin-2-ylamino)-2-(3-(dimethylamino)pyrrolidin-1-yl)-4-methoxyphenyl)acrylamide]	2.5 nM	0.6 nM	14 nM	22.1 nM	2 nM	29.6 nM	12.7 nM	3.1 nM	0.97 nM	6.9 nM	71.1 nM	> 3000 nM	12.2 nM	7.8 nM	6.99 µL/min/1e6 cells	432 (ng·h/mL)/(mg/kg)	370 ng/mL	2.77 µL/min/1e6 cells	–
